Results from patent US20210261561A1, “BICYCLIC HETEROCYCLE DERIVATIVES HAVING SELECTIVE BACE1 INHIBITORY ACTIVITY” (SHIONOGI & CO., LTD., priority 2018, published 2021).

Legend:
[1] = molecular target: BACE1 (Homo sapiens, UniProt P56817); assay: BACE1 biochemical FRET based assay (Test Example 2-1); conditions: for selectivity: BACE2 IC50 over BACE1 IC50 (FRET); for IC50: FRET, 0.04 μg/mL BACE1, 450 minutes, Citrate buffer pH 5.0
Description: This assay is a Fluorescence Resonance Energy Transfer Assay (FRET) based assay. The substrate for this assay is an APP derived 13 amino acids peptide that contains the ‘Swedish’ Lys-Met/Asn-Leu mutation of the amyloid precursor protein (APP) beta-site secretase cleavage site. This substrate also contains two fluorophores: (7-methoxycoumarin-4-yl) acetic acid (Mca) is a fluorescent donor with excitation wavelength at 320 nm and emission at 405 nm and 2,4-dinitrophenol (Dnp) is a proprietary quencher acceptor. […] Upon cleavage by BACE1, the fluorophore Mca is separated from the quenching group Dnp, restoring the full fluorescence yield of the donor. The increase in fluorescence is linearly related to the rate of proteolysis.
Briefly in a 384-well format recombinant BACE1 protein in a final concentration of 0.04 μg/mL is incubated for 450 minutes at room temperature with […] substrate in incubation buffer (final concentrations: 33.3 mM Citrate buffer pH 5.0, 0.033% PEG, 3% DMSO) in the absence or presence of compound. Next the amount of proteolysis is directly measured by fluorescence measurement at T=0′-120′ and T=450′ (excitation at 320 nm and emission at 405 nm). Results are expressed in RFU (Relative Fluorescence Units), as difference between T450 and Tx (Tx is chosen depending on the reaction speed between 0 and 120 minutes.).
A best-fit curve is fitted by a minimum sum of squares method to the plot of % Controlmin versus compound concentration. From this an IC50 value (inhibitory concentration causing 50% inhibition of activity) can be obtained.

[2] = molecular target: T1, BACE2 (Homo sapiens, UniProt Q9Y5Z0); assay: BACE2 biochemical FRET based assay (Test Example 2-1 (2)); conditions: 0.4 μg/mL BACE2, 450 minutes, Citrate buffer pH 5.0
T1 sequence (Q9Y5Z0 63-518): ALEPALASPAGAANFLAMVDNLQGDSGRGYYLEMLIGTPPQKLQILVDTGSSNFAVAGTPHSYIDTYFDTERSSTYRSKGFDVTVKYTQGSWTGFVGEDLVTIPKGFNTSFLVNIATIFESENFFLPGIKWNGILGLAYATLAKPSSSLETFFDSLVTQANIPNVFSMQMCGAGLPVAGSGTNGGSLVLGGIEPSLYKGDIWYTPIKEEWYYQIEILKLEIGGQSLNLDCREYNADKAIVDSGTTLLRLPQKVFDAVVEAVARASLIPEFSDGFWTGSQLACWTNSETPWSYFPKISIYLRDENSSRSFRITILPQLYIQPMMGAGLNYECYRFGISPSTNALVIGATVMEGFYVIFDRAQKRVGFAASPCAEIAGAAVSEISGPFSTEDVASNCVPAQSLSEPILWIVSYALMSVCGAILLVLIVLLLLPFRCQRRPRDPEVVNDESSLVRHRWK
Description: This assay is a Fluorescence Resonance Energy Transfer Assay (FRET) based assay. The substrate for this assay contains the ‘Swedish’ Lys-Met/Asn-Leu mutation of the amyloid precursor protein (APP) beta-secretase cleavage site. This substrate also contains two fluorophores: (7-methoxycoumarin-4-yl) acetic acid (Mca) is a fluorescent donor with excitation wavelength at 320 nm and emission at 405 nm and 2,4-dinitrophenol (Dnp) is a proprietary quencher acceptor. […] Upon cleavage by the beta-secretase, the fluorophore Mca is separated from the quenching group Dnp, restoring the full fluorescence yield of the donor. The increase in fluorescence is linearly related to the rate of proteolysis. Briefly in a 384-well format recombinant BACE2 protein in a final concentration of 0.4 μg/mL was incubated for 450 minutes at room temperature with 10 μM substrate in incubation buffer (final concentrations: 33.3 mM Citrate buffer pH 5.0, 0.033% PEG, 2% DMSO) in the absence or presence of compound. Next the amount of proteolysis was directly measured by fluorescence measurement at T=0 and T=450 (excitation at 320 nm and emission at 405 nm). Results were expressed in RFU (Relative Fluorescence Units), as difference between T450 and TO.
A best-fit curve was fitted by a minimum sum of squares method to the plot of % Controlmin versus compound concentration. From this an IC50 value (inhibitory concentration causing 50% inhibition of activity) can be obtained.

[3] = system: Abeta 1-37, Abeta 1-38, Abeta 1-40 and Abeta 1-42 in cerebrospinal fluid (CSF); assay: Pharmacology in the beagle dog, beta-amyloid profile in CSF (Test Example 18-1); format: in vivo
Method: Test compounds were tested to evaluate the effect on the beta-amyloid profile in cerebrospinal fluid (CSF) of dogs after a single dose, in combination with pharmacokinetic (PK) follow up and limited safety evaluation.
In the case of compounds shown below, two beagle dogs (1 male, 1 female) were dosed with vehicle (1 mL/kg of an aqueous solution of 20% cyclodextrin) and 4 beagle dogs (2 males and 2 females) were dosed with test compound at the doses indicated in the following Table in an aqueous 20% cyclodextrin solution with a concentration in mg/mL identical to the dose given in mg/kg) on an empty stomach.
CSF was taken in conscious animals directly from the lateral ventricle via a cannula which was screwed in the skull and covered with subcutaneous tissue and skin, before and at 4, 8, 25 and 49 hours after dosing. Eight hours after dosing the animals got access to their regular meal for 30 minutes. Blood was taken for PK follow up (0.5, 1, 2, 4, 8, 25 and 49 hours) and serum samples for biochemistry were taken before and at 8 and 25 h after dosing. The CSF samples were used for measurement of Abeta 1-37, Abeta 1-38, Abeta 1-40 and Abeta 1-42.

[4] = molecular target: T2, CYP3A4 (Homo sapiens, UniProt P08684); assay: CYP3A4(MDZ) MBI test (Test Example 4-2); format: in vitro ADME; conditions: pooled human liver microsomes, 10 μmol/L MDZ, pre-reaction 0 or 30 minutes; shifted IC value
T2 construct: from tissue; host or cells: pooled human liver microsomes
T2 sequence (P08684 whole entry): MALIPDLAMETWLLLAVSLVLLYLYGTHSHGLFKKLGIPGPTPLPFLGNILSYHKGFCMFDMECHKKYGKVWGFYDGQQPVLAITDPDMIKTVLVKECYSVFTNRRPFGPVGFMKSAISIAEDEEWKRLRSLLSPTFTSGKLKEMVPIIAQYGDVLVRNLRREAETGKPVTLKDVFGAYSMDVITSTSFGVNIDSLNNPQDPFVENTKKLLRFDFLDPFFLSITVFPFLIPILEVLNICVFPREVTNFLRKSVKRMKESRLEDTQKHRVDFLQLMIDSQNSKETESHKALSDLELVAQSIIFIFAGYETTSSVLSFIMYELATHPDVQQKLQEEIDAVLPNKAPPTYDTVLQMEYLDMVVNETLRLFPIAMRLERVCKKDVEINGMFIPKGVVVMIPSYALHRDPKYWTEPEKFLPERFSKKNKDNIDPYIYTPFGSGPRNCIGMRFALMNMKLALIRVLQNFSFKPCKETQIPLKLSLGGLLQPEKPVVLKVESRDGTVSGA
Method: CYP3A4(MDZ) MBI test is a test of investigating mechanism based inhibition (MBI) potential on CYP3A4 inhibition of a compound. CYP3A4 inhibition is evaluated using 1-hydroxylation reaction of midazolam (MDZ) by pooled human liver microsomes as a marker reaction.
The reaction conditions were as follows: substrate, 10 μmol/L MDZ; pre-reaction time, 0 or 30 minutes; substrate reaction time, 2 minutes; reaction temperature, 37° C.; protein content of pooled human liver microsomes, 0.5 mg/mL at pre-reaction time, […] (at 10-fold dilution) at reaction time; concentrations of the compound of the present invention, 1, 5, 10, 20 μmol/L (4 points).
Pooled human liver microsomes in a K-Pi buffer (pH 7.4) and a compound of the present invention solution as a pre-reaction solution were added to a 96-well plate at the composition of the pre-reaction. A part of pre-reaction solution was transferred to another 96-well plate, and diluted 10-fold by a substrate in a K-Pi buffer. NADPH as a co-factor was added to initiate the marker reaction (without preincubation). After a predetermined time of the marker reaction, methanol/acetonitrile=1/1 (v/v) solution was added in order to terminate the marker reaction. On the other hand, NADPH was also added to a remaining pre-reaction solution in order to initiate a pre-reaction (with preincubation). After a predetermined time of a pre-reaction, a part was transferred to another 96-well plate, and diluted 10-fold by a substrate in a K-Pi buffer in order to initiate the marker reaction. After a predetermined time of the marker reaction, methanol/acetonitrile=1/1 (v/v) solution is added in order to terminate the marker reaction. After centrifuged at 3000 rpm for 15 minutes, 1-hydroxymidazolam in the supernatant is quantified by LC/MS/MS.
The sample adding DMSO to a reaction system instead of compound of the present invention solution was adopted as a control (100%) because DMSO is used as a solvent to dissolve a compound of the present invention. Remaining activity (%) was calculated at each concentration of the compound of the present invention added as the solution, and IC50 value was calculated by reverse-presumption using a logistic model with a concentration and an inhibition rate. Shifted IC value was calculated as “IC value without preincubation (0 minutes)/IC value with preincubation (30 minutes)”. When a shifted IC value was 1.5 or more, this was defined as positive. When a shifted IC value was less than 1.1, this was defined as negative.

[5] = single dose 5 mg/kg, relevant decrease = >20% decrease
[6] = single dose 10 mg/kg, relevant decrease = >20% decrease

BACE1, sequence (P56817 46-501): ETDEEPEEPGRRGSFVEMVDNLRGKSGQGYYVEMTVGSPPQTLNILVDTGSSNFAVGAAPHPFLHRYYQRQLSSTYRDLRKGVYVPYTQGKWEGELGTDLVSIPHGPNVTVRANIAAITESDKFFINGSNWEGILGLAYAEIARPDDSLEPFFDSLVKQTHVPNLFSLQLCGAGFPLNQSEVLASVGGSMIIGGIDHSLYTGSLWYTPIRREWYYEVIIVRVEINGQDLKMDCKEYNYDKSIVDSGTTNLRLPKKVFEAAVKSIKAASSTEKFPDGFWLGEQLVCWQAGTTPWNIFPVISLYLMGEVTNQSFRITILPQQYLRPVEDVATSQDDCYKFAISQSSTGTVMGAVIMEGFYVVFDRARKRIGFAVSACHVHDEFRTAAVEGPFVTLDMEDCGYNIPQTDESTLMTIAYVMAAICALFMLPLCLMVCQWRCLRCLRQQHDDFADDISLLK

CN1C(N)=N[C@](C)(c2cc(NC(=O)c3cc4c(cn3)OC(F)(F)CO4)ccc2F)CS1(=O)=O [Compound I-011]
selectivity [1]: 15.9 | IC50 [1]: 1.2 nM | IC50 [2]: 18.6 nM | % Decrease in Abeta 1-42 at 8 h post dosing compared to own baseline ([3]; single dose 5 mg/kg): −54% | % Decrease in Abeta 1-42 at 25 h post dosing compared to own baseline [3, 5]: −37% | % Decrease in Abeta 1-42 at 8 h post dosing compared to own baseline ([3]; single dose 10 mg/kg): −74% | % Decrease in Abeta 1-42 at 25 h post dosing compared to own baseline [3, 6]: −77% | % Decrease in Abeta 1-42 at 49 h post dosing compared to own baseline ([3]; single dose 10 mg/kg, 49 h, relevant decrease = >20% decrease): −30% | MBI MDZ [4]: Negative

CN1C(N)=N[C@](C)(c2cc(NC(=O)c3cc4c(cn3)OC(F)(F)O4)ccc2F)CS1(=O)=O [Compound I-012]
selectivity [1]: 18.7 | IC50 [1]: 2.9 nM | IC50 [2]: 53.7 nM | MBI MDZ [4]: Negative

CC1(C)C(N)=N[C@](C)(c2cc(NC(=O)c3cc4c(cn3)OC(F)(F)CO4)ccc2F)CS1(=O)=O [Compound I-024]
% Decrease in Abeta 1-42 at 8 h post dosing compared to own baseline ([3]; single dose 0.63 mg/kg): −40% | % Decrease in Abeta 1-42 at 8 h post dosing compared to own baseline ([3]; single dose 2.5 mg/kg): −66% | MBI MDZ [4]: Negative

[2H]C1([2H])Oc2cnc(C(=O)Nc3ccc(F)c([C@]4(C)CS(=O)(=O)C(C)(C)C(N)=N4)c3)cc2OC1([2H])[2H] [Compound I-026]
MBI MDZ [4]: Negative

CC1(C)C(N)=N[C@](C)(c2cc(NC(=O)c3cc4c(cn3)OC(F)(F)O4)ccc2F)CS1(=O)=O [Compound I-027]
MBI MDZ [4]: Negative

NC1=N[C@](CF)(c2cc(NC(=O)c3cc4c(cn3)OC(F)(F)CO4)ccc2F)[C@H]2COCC[C@H]2O1 [Compound I-035]
selectivity [1]: 301 | IC50 [1]: 2.2 nM | IC50 [2]: 661 nM | % Decrease in Abeta 1-42 at 8 h post dosing compared to own baseline ([3]; single dose 2.5 mg/kg): −52% | % Decrease in Abeta 1-42 at 8 h post dosing compared to own baseline ([3]; single dose 5 mg/kg): −63% | % Decrease in Abeta 1-42 at 25 h post dosing compared to own baseline [3, 5]: −27% | % Decrease in Abeta 1-42 at 8 h post dosing compared to own baseline ([3]; single dose 10 mg/kg): −82% | % Decrease in Abeta 1-42 at 25 h post dosing compared to own baseline [3, 6]: −28% | MBI MDZ [4]: Negative

NC1=N[C@](CF)(c2cc(NC(=O)c3cc4c(cn3)OC(F)(F)O4)ccc2F)[C@H]2COCC[C@H]2O1 [Compound I-036]
selectivity [1]: 166 | IC50 [1]: 13.2 nM | IC50 [2]: 2190 nM | MBI MDZ [4]: Negative

NC1=N[C@](CF)(c2cc(NC(=O)c3cc4c(cn3)OC(F)(F)CO4)ccc2F)[C@H]2CCOC[C@H]2O1 [Compound I-046]
selectivity [1]: 263 | IC50 [1]: 8.32 nM | IC50 [2]: 2190 nM | MBI MDZ [4]: Negative

C[C@H]1OC[C@H]2[C@@H]1OC(N)=N[C@]2(CF)c1cc(NC(=O)c2cc3c(cn2)OC(F)(F)CO3)ccc1F [Compound I-049]
selectivity [1]: 136 | IC50 [1]: 3.6 nM | IC50 [2]: 490 nM | MBI MDZ [4]: Negative

C[C@@H]1C[C@H]2OC(N)=N[C@](CF)(c3cc(NC(=O)c4cc5c(cn4)OC(F)(F)CO5)ccc3F)[C@H]2CO1 [Compound I-053]
selectivity [1]: 200 | IC50 [1]: 10 nM | IC50 [2]: 2000 nM | % Decrease in Abeta 1-42 at 8 h post dosing compared to own baseline ([3]; single dose 0.63 mg/kg): −31% | % Decrease in Abeta 1-42 at 8 h post dosing compared to own baseline ([3]; single dose 2.5 mg/kg): −50% | % Decrease in Abeta 1-42 at 25 h post dosing compared to own baseline ([3]; single dose 2.5 mg/kg, relevant decrease = >20% decrease): −27%
